Assay results from patent EP2686338B1, “FUNCTIONALIZED BIOMATERIALS FOR TISSUE REGENERATION” (Nanomed3d S.r.l., priority 2011, dated 2018).
Residues, ends and D or L forms follow the SMILES beside them.

Test: Rheology (frequency, time and strain sweeps)
Assay type: physicochemical
Details: for G' pre-assembling: average storage modulus of SAPeptide solution, before PBS; for G' pre-assembling / G' post-assembling: 1% w/v, 1-100 Hz; for G' post-assembling: average storage modulus of jellified scaffold, after PBS; for Onset point (% strain): strain percentage at rupture, strain sweep at 1 Hz, 25 C
Protocol: Rheological properties of the self-assembling peptides of the invention were determined using a controlled stress TA Instruments AR-2000ex rheometer (TA Instruments). A cone-and-plate geometry (acrylic cone diameter, 20 mm; angle, 1°; truncation gap 34 µm) was used. Preliminary strain sweeps were performed for each sample to define the linear viscoelastic region, thus ensuring that moduli were independent of strain. Time sweeps, after addition of PBS (1x) were recorded at 25 C (angular frequency ω=1 Hz) and continued till G' plateaued. Frequency sweeps, both for peptide water solutions and for self-assembled scaffolds, were performed at 25 C with the instrument in oscillatory mode at controlled strain of 1 %. Final strain sweeps was performed at 1Hz oscillatory frequency and at 25 C: onset point of failure was calculated by linear interpolation and subsequent determination of the intersection of the G' modes within the linear region and at material failure respectively.

G' pre-assembling	G' post-assembling	Onset point (% strain)	SMILES
2.68 Pa	166.7 Pa	10.16%	CC(=O)N[C@@H](CCC(N)=O)C(=O)N[C@@H](Cc1c[nH]cn1)C(=O)N[C@@H](CC(C)C)C(=O)N1CCC[C@H]1C(=O)N[C@@H](CCCNC(=N)N)C(=O)N[C@@H](CC(=O)O)C(=O)N[C@@H](Cc1c[nH]cn1)C(=O)NCC(=O)NCC(=O)NCC(=O)N[C@@H](CC(C)C)C(=O)N[C@@H](CC(=O)O)C(=O)N[C@@H](CC(C)C)C(=O)N[C@@H](CCCCN)C(=O)N[C@@H](CC(C)C)C(=O)N[C@@H](CC(=O)O)C(=O)N[C@@H](CC(C)C)C(=O)N[C@@H](CCCCN)C(=O)N[C@@H](CC(C)C)C(=O)N[C@@H](CC(=O)O)C(=O)N[C@@H](CC(C)C)C(=O)N[C@@H](CCCCN)C(N)=O [Ac-QHL, Ac-QHLPRDH-GGG-LDLKLDLKLDLK-CONH2] (Ac-QHLPRDHGGGLDLKLDLKLDLK-NH2)
6.72 Pa	267.3 Pa	26.12%	CC(=O)N[C@@H](CO)C(=O)N[C@@H](CO)C(=O)N[C@@H](CC(C)C)C(=O)N[C@@H](CO)C(=O)N[C@H](C(=O)N[C@@H](CC(N)=O)C(=O)N[C@@H](CC(=O)O)C(=O)NCC(=O)NCC(=O)NCC(=O)N[C@@H](CC(C)C)C(=O)N[C@@H](CC(=O)O)C(=O)N[C@@H](CC(C)C)C(=O)N[C@@H](CCCCN)C(=O)N[C@@H](CC(C)C)C(=O)N[C@@H](CC(=O)O)C(=O)N[C@@H](CC(C)C)C(=O)N[C@@H](CCCCN)C(=O)N[C@@H](CC(C)C)C(=O)N[C@@H](CC(=O)O)C(=O)N[C@@H](CC(C)C)C(=O)N[C@@H](CCCCN)C(N)=O)C(C)C [Ac-SSL, Ac-SSLSVND-GGG-LDLKLDLKLDLK-CONH2] (Ac-SSLSVNDGGGLDLKLDLKLDLK-NH2)
9.01 Pa	124.7 Pa	17.78%	CC(C)C[C@H](NC(=O)CNC(=O)CNC(=O)CNC(=O)[C@H](CC(=O)O)NC(=O)[C@H](CC(N)=O)NC(=O)[C@@H](NC(=O)[C@H](CO)NC(=O)[C@H](CC(C)C)NC(=O)[C@H](CO)NC(=O)[C@@H](N)CO)C(C)C)C(=O)N[C@@H](CC(=O)O)C(=O)N[C@@H](CC(C)C)C(=O)N[C@@H](CCCCN)C(=O)N[C@@H](CC(C)C)C(=O)N[C@@H](CC(=O)O)C(=O)N[C@@H](CC(C)C)C(=O)N[C@@H](CCCCN)C(=O)N[C@@H](CC(C)C)C(=O)N[C@@H](CC(=O)O)C(=O)N[C@@H](CC(C)C)C(=O)N[C@@H](CCCCN)C(N)=O [SSL, NH2-SSLSVND-GGG-LDLKLDLKLDLK-CONH2] (H-SSLSVNDGGGLDLKLDLKLDLK-NH2)
